Laboratory results published in US9227971B2, “Pyrazolo[1,5-a]pyrimidine compounds as mTOR inhibitors” (Merck Sharp & Dohme Corp., priority 2010, dated 2016).

Columns and labels:
[1] = tested on: phosphorylated AKT Ser473 (pAKT S473), mTORC2 activity, PC3 cells; experiment: mTOR target engagement assay, immunofluorescent cell-based, pAKT S473 readout (mTORC2 activity); conditions: Homo sapiens, PC-3, PC3 cells; given as a number, no unit
Outline: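 After blocking, cells were stained overnight at 4 °C with anti-pAKT S473 antibody, then a fluorescent secondary; inhibition was read as reduced fluorescence intensity.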

[2] = molecular target: human mTOR enzyme (Homo sapiens, UniProt P42345); experiment: mTOR kinase assay (HTRF mTOR enzyme assay); format: biochemical; conditions: 5 μM ATP, 0.2 μM GST-S6K, one hour at 30° C.
Chain of human mTOR enzyme (P42345 1360-2549 limits assumed): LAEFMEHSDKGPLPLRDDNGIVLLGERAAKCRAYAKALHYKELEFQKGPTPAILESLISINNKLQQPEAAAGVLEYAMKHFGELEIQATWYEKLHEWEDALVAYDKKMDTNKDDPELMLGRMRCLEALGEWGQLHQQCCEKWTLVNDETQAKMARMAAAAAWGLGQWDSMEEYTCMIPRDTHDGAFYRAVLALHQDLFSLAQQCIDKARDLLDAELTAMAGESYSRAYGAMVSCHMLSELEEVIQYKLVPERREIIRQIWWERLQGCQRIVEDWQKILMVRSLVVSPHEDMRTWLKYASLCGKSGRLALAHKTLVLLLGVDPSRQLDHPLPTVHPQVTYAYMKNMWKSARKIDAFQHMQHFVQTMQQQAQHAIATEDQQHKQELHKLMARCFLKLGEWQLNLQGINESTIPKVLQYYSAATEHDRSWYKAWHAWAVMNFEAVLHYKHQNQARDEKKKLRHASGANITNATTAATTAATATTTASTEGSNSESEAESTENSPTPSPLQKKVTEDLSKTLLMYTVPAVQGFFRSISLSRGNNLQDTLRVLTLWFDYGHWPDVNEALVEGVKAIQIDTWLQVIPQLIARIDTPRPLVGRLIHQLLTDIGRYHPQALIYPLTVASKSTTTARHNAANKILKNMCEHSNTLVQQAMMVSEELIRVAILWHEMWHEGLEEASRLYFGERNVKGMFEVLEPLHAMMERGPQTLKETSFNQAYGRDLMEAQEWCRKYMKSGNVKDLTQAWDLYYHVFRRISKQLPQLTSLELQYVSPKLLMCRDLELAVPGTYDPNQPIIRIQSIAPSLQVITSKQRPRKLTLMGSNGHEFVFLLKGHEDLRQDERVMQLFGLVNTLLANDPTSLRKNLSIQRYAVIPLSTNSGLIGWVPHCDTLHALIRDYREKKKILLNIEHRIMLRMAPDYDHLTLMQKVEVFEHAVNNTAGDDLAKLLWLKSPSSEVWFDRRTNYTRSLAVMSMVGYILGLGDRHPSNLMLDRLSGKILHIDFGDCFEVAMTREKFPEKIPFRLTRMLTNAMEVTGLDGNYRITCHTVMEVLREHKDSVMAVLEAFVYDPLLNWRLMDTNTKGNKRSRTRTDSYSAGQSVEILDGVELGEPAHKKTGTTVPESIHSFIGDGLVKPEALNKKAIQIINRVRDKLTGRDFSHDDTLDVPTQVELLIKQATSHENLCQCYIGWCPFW
Procedure: An HTRF mTOR enzyme assay was developed to assess the compounds' inhibitory activity. The mTOR assay buffer contained 10 mM Hepes (pH 7.4), 50 mM NaCl, 100 μg/ml BSA, 50 mM B-glycerophosphate, 10 mM MnCl2 and 0.5 mM DTT. […] 20 ng of human mTOR enzyme (<5% pure was preincubated with the compound for 10 minutes followed by the addition of 5 μM ATP and 0.2 μM GST-S6K (Zhang et al., Protein Expression and Purification 46, pp 414-420 (2006)). The reaction was incubated for one hour at 30° C. Anti phospho p70-S6K(Thr389) (˜1.7 ng/well, anti-phospho-p70S6K-cryptate (Pho-p70S6-Kin-K cat#64CUSKAY, from Cisbio)) and anti GST-XL665 (1:1 Ratio with the substrate GST-S6K, anti GST-XL665, cat#61 GSTXLB) Cisbio) were added after the reaction was stopped. The plates were read (PHERAstar, BMG) at least 2 hours after adding the anti phospho p70-S6K and the anti GST-XL665.
Dose-response curves were plotted from the inhibition data generated, each in duplicate, from 8 point serial dilutions of inhibitory compounds. Concentration of compound was plotted against the HTRF em665/em590 ratio signal. To generate IC50 values, the dose-response curves were fitted to a standard sigmoidal curve and IC50 values were derived by nonlinear regression analysis.

[3] = tested on: phosphorylated 4E-BP1 Thr37/46 (p4E-BP1 Thr37/46), mTORC1 activity, PC3 cells; experiment: mTOR target engagement assay, immunofluorescent cell-based, p4E-BP1 Thr37/46 readout (mTORC1 activity); conditions: Homo sapiens, PC-3, PC3 cells; given as a number, no unit; read-out: p4E-1 Thr37/46 IC50
Outline: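 Seed PC3 cells overnight; treat with compound dilutions for ninety minutes at 37° C; fix with glyoxal and block; stain with anti-p4E-BP1 Thr37/46 overnight at 4° C, then fluorescent secondary; read fluorescence and fit IC50 against DMSO-only controls.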

## CC(=O)c1c([C@@H]2C[C@H]3CC[C@@H](C2)N3C(=O)c2nnc[nH]2)nc2c(-c3ccc(-c4nn(C)cc4F)nc3)cnn2c1N [Compound 1.1.93, 1-(5-((1R,3s,5S)-8-(4H-1,2,4-triazole-3-carbonyl)-8-azabicyclo[3.2.1]octan-3-yl)-7-amino-3-(6-(4-fluoro-1-methyl-1H-pyrazol-3-yl)pyridin-3-yl)pyrazolo[1,5-a]pyrimidin-6-yl)ethanone]
[1]
  IC50: 4.07 µM
[2]
  IC50: 0.0023 µM
[3]
  IC50: 3.88 µM
